Experimental data as given in patent US20060198900A1, “Bioactive Agent Compositions for Repair of Cell Injuries” (Nutritional Bioscience Limited, priority 2004, published 2006).
Entries after “also recorded” stand apart in the source; their conditions may differ.

Columns and labels:
[1] = test system: recurrent herpes simplex infection (cold sores); conditions: oral 600-1000 mg per day in two doses; increasing from 46 days; cited from earlier work
Caco2-BBe cells = conditions: relatively small amount, 1 mg protein/ml; cited from earlier work
[2] = test system: indomethacin-induced rat gastric damaging model; assay: Indomethacin-induced rat gastric damaging model; format: in vivo; conditions: 1% via gavage before indomethacin
[3] = test system: human colonic cancer cell line HT-29; assay: Cell restitution (migration) assay in wounded HT-29 monolayers; format: cell-based; conditions: 10 ug/ml, 8 hours after wounding
Procedure: Accordingly, the human colonic cancer cell line HT-29 was grown to confluence in six well plates in a solution of DMEM-containing glutamine and 10% fetal calf serum. The monolayers of the cells were then wounded by scraping a disposable pipette tip across the dishes, washed with fresh serum-free medium, and then cultured in a serum-free medium in the presence of 1 mg/ml, 2 mg/ml, and 5 mg/ml colostrum solutions. The rate of movement of the anterior edges of the wounded monolayer cells was then determined by taking serial photomicrographs at various times after wounding (i.e., 0, 4, 8, 12, and 24) hours, using an inverted Nikon TS100 microscope and a Nikon Coolpix 800 digital camera with 100-fold magnification. Identical regions were examined at each time point by premarking the base of the plates to facilitate alignment. […] Each wound was examined in at least three different regions, and expressed as mean and SEM of three separate experiments.
The next study analyzed the potential added benefit of using colostrum rather than milk based product. […] The distance migrated by the leading edge of the cells 8 hours after wounding was then assessed. […]
The next study analysed the potential added benefit of using licorice as a stimulant of restitution. […] The distance migrated by the leading edge of the cells 8 hours after wounding was then assessed. […]

For `Nc1nc2c(ncn2COCCO)c(=O)[nH]1` [acyclovir], the “mean time to recurrence of cold sores” value [1] is given as 118 days.
In the case of `O=c1c(-c2ccc(O)cc2)coc2cc(O)cc(O)c12` [genistein], the “growth of Caco2-BBe cells” value (Caco2-BBe cells) is listed as “increase some parameters of growth”.
In the case of `O=C([O-])O.[Na+]` [sodium bicarbonate], the “reduction of degree of gastric injury compared to saline control” value [2] is reported as “about 75%”.
With “epidermal growth factor [EGF, peptide growth factor used as positive control]” the “amount of migration of leading edge versus DMEM alone” value [3] was “two-fold increase; also recorded: increased the amount of cell movement”.
